The assay concerns Hepatitis C virus NS3 helicase. In words: HCV NS3 helicase DNA unwinding inhibitors, primary screen, biochemical, fluorescence, FAM-quenched DNA substrate, full-length NS3 (AID 1347039). Particulars: recombinant NS3 DNA unwinding, FAM fluorescence rate; at 30 µM; stronger effect = lower value.

Records with an inconclusive call do not appear. Calls of active or inactive are those of the source.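 Rule for the calls: active = remaining helicase activity under 10% at 30 micromolar; inconclusive = remaining helicase activity between 10% and 50%; inactive = remaining helicase activity over 50%.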

Turning to `O=C1NC(=S)NC(=O)C1=Cc1cn(C(=O)c2ccccc2Br)c2ccc(Cl)cc12`, the remaining helicase activity was 83.8% (inactive).

Consider `COc1ccc2c(c1)c(C=C1C(=O)NC(=S)NC1=O)cn2C(=O)c1ccccc1`, for which the remaining helicase activity is 79.2% (inactive).

Consider `O=C1NC(=S)NC(=O)C1=Cc1cn(C(=O)c2ccccc2)c2ccc(Cl)cc12`, for which the remaining helicase activity is 73.2% (inactive).

For the molecule `COc1ccc(C(=O)n2cc(C=C3C(=O)NC(=S)NC3=O)c3cc(Cl)ccc32)cc1`, the remaining helicase activity is 53.2% (inactive).

On to `O=C1NC(=S)NC(=O)C1=Cc1cn(C(=O)c2ccccc2)c2ccccc12`, for which the remaining helicase activity is 56.3% (inactive).

With `O=C1NC(=S)NC(=O)C1=Cc1cn(C(=O)c2ccccc2Br)c2ccc(Br)cc12`, the remaining helicase activity was 53.2% (inactive).

Consider `COc1ccc(C(=O)n2cc(C=C3C(=O)NC(=S)NC3=O)c3cc(OC)ccc32)cc1`, for which the remaining helicase activity was 55.2% (inactive).

Take `COc1ccc(C(=O)n2cc(C=C3C(=O)NC(=S)NC3=O)c3cc(Br)ccc32)cc1`: the remaining helicase activity was 61.9% (inactive).

Take `COc1ccc2c(c1)c(C=C1C(=O)NC(=S)NC1=O)cn2C(=O)c1cccc2ccccc12`: the remaining helicase activity was 0%.

For the molecule `O=C1NC(=S)NC(=O)C1=Cc1cn(C(=O)c2cccc3ccccc23)c2ccccc12`, the remaining helicase activity was 22.3% (inactive).

In the case of `O=C1NC(=S)NC(=O)C1=Cc1cn(C(=O)c2ccccc2Br)c2ccccc12`, the remaining helicase activity is 63.5% (inactive).

For the molecule `COc1ccc2c(c1)c(C=C1C(=O)NC(=S)NC1=O)cn2C(=O)c1ccc2ccccc2c1`, the remaining helicase activity is 6.3%.

As to `O=C1NC(=S)NC(=O)C1=Cc1cn(C(=O)c2cccc3ccccc23)c2ccc(Cl)cc12`, the remaining helicase activity is 33.4% (inactive).

`COc1ccc(C(=O)n2cc(C=C3C(=O)NC(=S)NC3=O)c3ccccc32)cc1`: the remaining helicase activity was 54.6% (inactive).

On to `O=C1NC(=S)NC(=O)C1=Cc1cn(C(=O)c2ccc(F)cc2)c2ccccc12`, for which the remaining helicase activity is 51.1% (inactive).

Regarding `O=C1NC(=S)NC(=O)C1=Cc1cn(C(=O)c2ccc3ccccc3c2)c2ccc(Cl)cc12`, the remaining helicase activity is 73.3% (inactive).

For the molecule `O=C1NC(=S)NC(=O)C1=Cc1cn(C(=O)c2ccc3ccccc3c2)c2ccccc12`, the remaining helicase activity is 0%.

The values are drawn from PubChem BioAssay AID1347039 (Raney Lab, University of Arkansas for Medical Sciences …, 2019).
